Legend:
[1] = molecular target: T1, dopamine transporter (Homo sapiens, UniProt Q01959); assay: Dynamic SPECT time-activity study in Lewy Body Dementia and control subjects; assay type: in vivo; set-up: from tissue; host or cells: human brain striatum in vivo (Lewy Body Dementia subjects and controls)
Text: The following example summarizes single photon emission computed tomographic (SPECT) image acquisition, analysis methods for Lewy Body Dementia research participants and healthy controls participating in an ^123I-altropane SPECT imaging study. The experiment is an open label study evaluating time-activity curves and striatal dopamine transporter occupancy over the first hour post bolus injection of ^123I-altropane using temporally well-resolved dynamic SPECT in Lewy Body Dementia subjects and similarly aged healthy control subjects. In addition, for the Lewy Body Dementia subjects, a second injection and scan is performed on each subject on a separate test day to evaluate the test/retest reproducibility data for both visual and quantitative analyses.
Fifteen idiopathic Lewy Body Dementia subjects are recruited through local advertising and word-of-mouth for enrollment in the study. All fifteen subjects complete two separate injection and SPECT scan sessions with approximately […] (8 mCi) of ^123I-altropane. Subjects undergo assessment by a neurology specialist.
Twelve healthy controls subjects are recruited for participation in a single scan session with ^123I-altropane using the identical SPECT image acquisition protocol as the Lewy Body Dementia subjects. Healthy subjects are evaluated by a neurology specialist to confirm the absence of neurologic illness.
SPECT scans are acquired for 60 min following the intravenous injection with […] (8.0 mCi) of ^123I altropane. A series of dynamic SPECT scans are obtained as five scans at 6 minutes per acquisition followed by three scans at 10 minutes per acquisition. The subject remains in the camera for the duration of the acquisition. Each SPECT study is acquired on a Philips PRISM 3000XP triple-headed SPECT camera (Cleveland, Ohio, USA) fitted with fan-beam collimators. Each head rotates 360 degrees, sampling every 3 degrees for a total of 120 raw projection images per head. Projection data are collected in a 128×128 matrix within a symmetric energy window centered at 159 kEv (+/−10%).
Data are re-constructed using filtered back projection and a simple ramp filter followed by a post hoc (3-D) standardized low pass filter. Attenuation correction is performed applying a Chang 0 correction and a mu of 0.11 cm^−1 using a standard or custom software. Regions of interest (ROIs) are placed in the 3-head data scans with individual ROI sampling of the left and right caudate and putamen and an occipital background region. […] The mean striatal SBR scores are calculated as the mean of the left and right caudate and putamen SBR scores. […]
The time-activity data for mean striatal count densities and occipital background for each of the 8 images acquired in the 60 minutes post injection sampling period are plotted to permit visual interrogation of the uptake and washout characteristics of ^123I-altropane in Lew Body Dementia and controls. […] The peak SBR is assessed for each subject for data acquired using 1, 2, and all 3 heads of imaging data. […]

[2] = Safety and tolerability of imaging agent in patients; assay type: in vivo, human
[3] = molecular target: T1, dopamine transporter; assay: SPECT imaging of striatal binding potential, Lewy Body Dementia subjects versus controls; assay type: in vivo; set-up: from tissue; host or cells: human brain striatum in vivo (Lewy Body Dementia subjects and controls)
[4] = molecular target: T1, dopamine transporter; conditions: in vitro; cited from earlier work
[5] = molecular target: T1, dopamine transporter; conditions: cited from earlier work
[6] = molecular target: T2, dopamine transporter (Macaca fascicularis, UniProt Q9GJT6); conditions: monkeys, in vivo and in vitro; density within range reported for the dopamine transporter; cited from earlier work
T2 construct: host or cells: monkey striatum
T2 sequence (Q9GJT6 whole entry): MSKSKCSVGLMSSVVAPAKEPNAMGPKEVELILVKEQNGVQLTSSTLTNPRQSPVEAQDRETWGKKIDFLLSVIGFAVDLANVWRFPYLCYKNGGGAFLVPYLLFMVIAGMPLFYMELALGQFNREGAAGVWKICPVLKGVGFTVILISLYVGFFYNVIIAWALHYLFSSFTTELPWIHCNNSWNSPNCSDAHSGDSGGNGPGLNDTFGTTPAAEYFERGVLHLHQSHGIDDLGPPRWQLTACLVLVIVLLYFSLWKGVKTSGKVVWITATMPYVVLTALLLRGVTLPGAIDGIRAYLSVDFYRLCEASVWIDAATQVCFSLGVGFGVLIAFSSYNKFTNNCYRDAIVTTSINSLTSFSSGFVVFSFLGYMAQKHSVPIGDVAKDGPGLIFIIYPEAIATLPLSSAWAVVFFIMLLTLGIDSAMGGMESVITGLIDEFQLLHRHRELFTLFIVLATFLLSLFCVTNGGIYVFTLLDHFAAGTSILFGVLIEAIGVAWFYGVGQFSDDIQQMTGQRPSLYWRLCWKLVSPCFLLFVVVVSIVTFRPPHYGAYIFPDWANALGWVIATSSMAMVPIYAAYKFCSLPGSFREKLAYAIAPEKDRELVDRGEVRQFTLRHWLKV

T1 sequence (Q01959 whole entry): as the sequence (Q9GJT6 whole entry) above, with M24V, V137I, S194P, G198S, N200D, G201S, P202S counted along it

Row | SMILES | test-retest reproducibility of total striatal binding ([1]; 15 LBD subjects, about 30 minutes commencing 15 minutes after injection) | time post injection by which washout rates from striatum and occipital background are similar (stable striatal binding ratio) ([1]; bolus injection) [min] | time of peak striatal count densities post injection ([1]; bolus injection, controls and Lewy Body Dementia subjects) [min] | time of peak SBR post injection ([1]; one and two imaging head reconstructions) [min] | safety and tolerability [2] | striatal binding potential versus expected levels for age matched normal individuals ([3]; Example 1, six Lewy Body Dementia subjects, i.v., SPECT) | uptake in striatum, Lewy Body Dementia subjects versus control adults ([3]; Example 3) | binding potential, Lewy Body Dementia group versus control group ([3]; Example 3, 8 LBD and 16 control adults, one-tailed t-test) | binding site on the dopamine transporter [4] | elimination from the brain ([1]; most subjects) | selectivity for dopamine transporter compared to serotonin transporter [5] | regional binding in brain [6]
1 | COC(=O)[C@H]1[C@@H](c2ccc(F)cc2)C[C@@H]2CC[C@H]1N2C/C=C/[123I] [^123I-Altropane, E-2β-carbomethoxy-3β-(4-fluorophenyl)-N-1(1-iodoprop-1-en-3) nortropane] | demonstrates reproducibility | 20 to 30 | 10 | ≥ 15 | safe and well tolerated | reduced binding potential | lower | significantly lesser binding potential | – | – | – | –
2 | COC(=O)C1C(c2ccc(F)cc2)CC2CCC1N2C/C=C/I (stereo not drawn) [Altropane, 2β-carbomethoxy-3β-(4′-flurophenyl)-N-(3-iodo-E-allyl) nortropane] | – | – | – | – | – | – | – | – | binds to a specific high-affinity site | rapidly eliminate | high selectivity | preferentially binds to dopamine rich areas of the striatum

From patent US20160121003A1, “METHODS FOR DIAGNOSING AND […] OF LEWY BODY DEMENTIA BY ASSESSING DOPAMINE T[…]” (Alseres Pharmaceuticals, Inc., priority 2007, published 2016)
